What follows are compounds tested on rabbit skeletal myofibrils (fast skeletal myofibrils) (assay: Activation of fast skeletal myofibrils (PUMA assay, AC1.4)). Conditions: calcium at pCa25, AC1.4 = concentration at which the compound increased the enzymatic activity.
Format: biochemical
Method: Preparation of fast skeletal myofibrils: Rabbit skeletal myofibrils were prepared based upon the method of Herrmann et al. (Biochem. 32(28):7255-7263(1993). Myofibrils were prepared from rabbit psoas muscle purchased from Pel-Freez Biologicals (Arkansas) within 2 days of ordering, stored on ice. Minced muscle was homogenized in 10 volumes of ice-cold “standard” buffer (50 mM Tris, pH 7.4, 0.1 M KOAc, 5 mM KCl, 2 mM dithiothreitol (DTT), 0.2 mM phenylmethylsulfonyl fluoride (PMSF), 10 μM leupeptin, 5 μM pepstatin, and 0.5 mM sodium azide) containing 5 mM ethylenediaminetetraacetic acid (EDTA) and 0.5% Triton X-100 using an Omni-Macro homogenizer. Myofibrils were recovered by low speed centrifugation (3000 rpm for 10 minutes) and washed 2 times in the Triton X-100 containing buffer to ensure removal of cellular membrane. Following the Triton washes, myofibrils were washed 3 times in “standard” buffer containing 2 mM magnesium acetate. A final wash in assay buffer (12 mM piperazine-1,4-bis(2-ethanesulfonic acid) (PIPES), pH 6.8, 60 mM KCl, 1 mM DTT) was performed and brought to 10% sucrose for flash freezing in liquid nitrogen and storage at −80° C.
Activation of Fast Skeletal Myofibrils: Fast fiber activators were identified by measuring the enzymatic activity of muscle myofibril preparations using the proprietary PUMA (trademark) (see, e.g., U.S. Pat. Nos. 6,410,254, 6,743,599, 7,202,051, and 7,378,254) assay system. Myofibril preparations consisted of rabbit skeletal muscle (approximately 90% fast fibers) that had been mechanically homogenized and washed with a detergent (Triton X-100) to remove cellular membranes. This preparation retained all of the sarcomeric components in a native conformation and the enzymatic activity was still regulated by calcium. Compounds were tested using a myofibril suspension and a level of calcium sufficient to increase enzymatic activity of the myofibrils to 25% of their maximal rate (termed pCa25). Enzymatic activity was tracked via a pyruvate kinase and lactate dehydrogenase-coupled enzyme system. This assay regenerates myosin-produced ADP into ATP by oxidizing NADH, producing an absorbance change at 340 nm. The buffering system was 12 mM PIPES, 2 mM MgCl2, 1 mM DTT at pH 6.8 (PM12 buffer). […] In Table 9, “Example Compound” refers to the compound labeled with the same number in Table 2.
`CC[C@H](C)[C@H]1C(=O)Nc2cc(F)ccc2CN1C(=O)NC` [Compound 77, (S)-3-((S)-sec-butyl)-8-fluoro-N-methyl-2-oxo-1,2,3,5-tetrahydro-4H-benzo[e][1,4]diazepine-4-carboxamide] gave an AC1.4 of 0.19 µM.
With `CC[C@H](C)[C@H]1C(=O)Nc2c(F)cccc2CN1C(=O)NC` [Compound 78, (S)-3-((S)-sec-butyl)-9-fluoro-N-methyl-2-oxo-1,2,3,5-tetrahydro-4H-benzo[e][1,4]diazepine-4-carboxamide] the AC1.4 was 0.50 µM.
`CC[C@H](C)[C@H]1C(=O)Nc2c(F)cccc2CN1C(=O)N1CC(O)C1` [Compound 79, (S)-3-((S)-sec-butyl)-9-fluoro-4-(3-hydroxyazetidine-1-carbonyl)-1,3,4,5-tetrahydro-2H-benzo[e][1,4]diazepin-2-one] showed an AC1.4 of 0.32 µM.
Work on `CC[C@H](C)[C@H]1C(=O)Nc2cncc(F)c2CN1C(=O)c1cnn(C)c1` [Compound 80, (S)-3-((S)-sec-Butyl)-6-fluoro-4-(1-methyl-1H-pyrazole-4-carbonyl)-1,3,4,5-tetrahydro-2H-pyrido[3,4-e][1,4]diazepin-2-one] yielded an AC1.4 of 0.47 µM.
With `CC[C@H](C)[C@H]1C(=O)Nc2cncc(C)c2CN1C(N)=O` [Compound 81, (S)-3-((S)-sec-butyl)-6-methyl-2-oxo-1,2,3,5-tetrahydro-4H-pyrido[3,4-e][1,4]diazepine-4-carboxamide] the AC1.4 was 3.80 µM.
Work on `CC[C@H](C)[C@H]1C(=O)Nc2ccccc2CN1C(=O)c1cc2cnccc2[nH]1` [Compound 83, (S)-3-((S)-sec-butyl)-4-(1H-pyrrolo[3,2-c]pyridine-2-carbonyl)-1,3,4,5-tetrahydro-2H-benzo[e][1,4]diazepin-2-one] yielded an AC1.4 of 0.03 µM.
`CC[C@H](C)[C@H]1C(=O)Nc2ccccc2CN1C(=O)c1ccn(C)n1` [Compound 84, (S)-3-((S)-sec-butyl)-4-(1-methyl-1H-pyrazole-3-carbonyl)-1,3,4,5-tetrahydro-2H-benzo[e][1,4]diazepin-2-one] showed an AC1.4 of 0.09 µM.
In the case of `CC[C@H](C)[C@H]1C(=O)Nc2ccccc2CN1C(=O)c1ccc(C(N)=O)[nH]1` [Compound 85, 5-((S)-3-((S)-sec-butyl)-2-oxo-2,3,4,5-tetrahydro-1H-benzo[e][1,4]diazepine-4-carbonyl)-1H-pyrrole-2-carboxamide], the AC1.4 is reported as 0.01 µM.
`CC[C@H](C)[C@H]1C(=O)Nc2ccccc2CN1C(=O)[C@H](C)O` [Compound 86, (S)-3-((S)-sec-butyl)-4-((S)-2-hydroxypropanoyl)-1,3,4,5-tetrahydro-2H-benzo[e][1,4]diazepin-2-one] showed an AC1.4 of 1.81 µM.
`CC[C@H](C)[C@H]1C(=O)Nc2ccccc2CN1/C(=N/C#N)NC` [Compound 87, (S,E)-3-((S)-sec-butyl)-N′-cyano-N-methyl-2-oxo-1,2,3,5-tetrahydro-4H-benzo[e][1,4]diazepine-4-carboximidamide] showed an AC1.4 of 0.07 µM.
Work on `CC(C)[C@H]1C(=O)Nc2ccccc2CN1c1nccc(=O)[nH]1` [Compound 88, (S)-3-isopropyl-4-(6-oxo-1,6-dihydropyrimidin-2-yl)-1,3,4,5-tetrahydro-2H-benzo[e][1,4]diazepin-2-one] yielded an AC1.4 of 1.22 µM.
`CC[C@H](C)[C@H]1C(=O)Nc2ccccc2CN1S(=O)(=O)c1ccc(F)cc1` [Compound 89, (S)-3-((S)-sec-butyl)-4-((4-fluorophenyl)sulfonyl)-1,3,4,5-tetrahydro-2H-benzo[e][1,4]diazepin-2-one] gave an AC1.4 of 0.18 µM.
Compound `CC(=O)N1Cc2ccccc2NC(=O)[C@@H]1C1CCCCCC1` [Compound 91, (S)-4-acetyl-3-cycloheptyl-1,3,4,5-tetrahydro-2H-benzo[e][1,4]diazepin-2-one] has an AC1.4 of 0.08 µM.
`O=C1Nc2ccccc2CN(C(=O)CO)[C@H]1C1CCCCC1` [Compound 92, (S)-3-cyclohexyl-4-(2-hydroxyacetyl)-1,3,4,5-tetrahydro-2H-benzo[e][1,4]diazepin-2-one] was tested, and the AC1.4 was 0.40 µM.
For `CC[C@H](C)[C@H]1C(=O)Nc2ccccc2CN1C(=O)Nc1ccc(=O)n(C)c1` [Compound 93, (S)-3-((S)-sec-butyl)-N-(1-methyl-6-oxo-1,6-dihydropyridin-3-yl)-2-oxo-1,2,3,5-tetrahydro-4H-benzo[e][1,4]diazepine-4-carboxamide], the AC1.4 was 0.13 µM.
With `CC[C@H](C)[C@H]1C(=O)Nc2ccccc2CN1C(=O)Nc1cccn(C)c1=O` [Compound 94, (S)-3-((S)-sec-butyl)-N-(1-methyl-2-oxo-1,2-dihydropyridin-3-yl)-2-oxo-1,2,3,5-tetrahydro-4H-benzo[e][1,4]diazepine-4-carboxamide] the AC1.4 was 0.15 µM.
`CC[C@H](C)[C@H]1C(=O)Nc2ccccc2CN1C(=O)c1c[nH]c(=O)[nH]1` [Compound 95, (S)-3-((S)-sec-butyl)-4-(2-oxo-2,3-dihydro-1H-imidazole-4-carbonyl)-1,3,4,5-tetrahydro-2H-benzo[e][1,4]diazepin-2-one] was tested, and the AC1.4 was 0.04 µM.
`CC[C@H](C)[C@H]1C(=O)Nc2ccccc2CN1C(=O)Nc1cccnc1` [Compound 99, (S)-3-((S)-sec-butyl)-2-oxo-N-(pyridin-3-yl)-1,2,3,5-tetrahydro-4H-benzo[e][1,4]diazepine-4-carboxamide] gave an AC1.4 of 0.05 µM.
`CC[C@H](C)[C@H]1C(=O)Nc2ccccc2CN1C(=O)Nc1cn[nH]c1` [Compound 101, (S)-3-((S)-sec-butyl)-2-oxo-N-(1H-pyrzol-4-yl)-1,2,3,5-tetrahydro-4H-benzo[e][1,4]diazepine-4-carboxamide] showed an AC1.4 of 0.05 µM.
`CC[C@H](C)[C@H]1C(=O)Nc2ccccc2CN1C(=O)N1CC(CO)C1` [Compound 102, (S)-3-((S)-sec-butyl)-4-(3-(hydroxymethyl)azetidine-1-carbonyl)-1,3,4,5-tetrahydro-2H-benzo[e][1,4]diazepin-2-one] gave an AC1.4 of 0.37 µM.
`CC[C@H](C)[C@H]1C(=O)Nc2ccccc2CN1C(=O)N1CC[C@H]1C(N)=O` [Compound 103, (S)-1-((S)-3-((S)-sec-butyl)-2-oxo-2,3,4,5-tetrahydro-1H-benzo[e][1,4]diazepine-4-carbonyl)azetidine-2-carboxamide] gave an AC1.4 of 1.22 µM.
Work on `CC[C@H](C)[C@H]1C(=O)Nc2ccccc2CN1C(=O)c1c[nH]cn1` [Compound 104, (S)-3-((S)-sec-butyl)-4-(1H-imidazole-4-carbonyl)-1,3,4,5-tetrahydro-2H-benzo[e][1,4]diazepin-2-one] yielded an AC1.4 of 0.08 µM.
`CC[C@H](C)[C@H]1C(=O)Nc2ccccc2CN1C(=O)c1ccn[nH]1` [Compound 105, (S)-3-((S)-sec-butyl)-4-(1H-pyrazole-5-carbonyl)-1,3,4,5-tetrahydro-2H-benzo[e][1,4]diazepin-2-one] was tested, and the AC1.4 was 0.10 µM.
`CC[C@H](C)[C@H]1C(=O)Nc2ccccc2CN1C(=O)[C@@H]1CCCO1` [Compound 106, (S)-3-((S)-sec-butyl)-4-((S)-tetrahydrofuran-2-carbonyl)-1,3,4,5-tetrahydro-2H-benzo[e][1,4]diazepin-2-one] gave an AC1.4 of 0.89 µM.
With `CC[C@H](C)[C@H]1C(=O)Nc2ccccc2CN1C(=O)[C@H]1CCCO1` [Compound 107, (S)-3-((S)-sec-butyl)-4-((R)-tetrahydrofuran-2-carbonyl)-1,3,4,5-tetrahydro-2H-benzo[e][1,4]diazepin-2-one] the AC1.4 was 0.29 µM.
